Laboratory results published in US8178506B2, “Oligomeric compounds and compositions for use in modulation of small non-coding RNAs” (Regulus Therapeutics Inc., priority 2003, dated 2012).
In the oligonucleotide strings, read from the 5' end, every base follows the letter of its sugar. An asterisk marks phosphorothioate; unmarked linkages are phosphodiester. Other units and linkages are bracketed, terminal groups are in braces. A string of capitals states the bases alone. e = 2'-O-(2-methoxyethyl) (MOE); [5mC] = 5-methylcytosine

Columns and labels:
[1] = test system: leptin; test: Leptin secretion by adipocytes (ELISA); format: cell-based, human; conditions: adipocytes, 250 nM oligomeric compound, day nine post-transfection, relative to control (1.0); Table 16
Procedure: Leptin secretion into the medium in which adipocytes are cultured is measured by protein ELISA. On day nine post-transfection, 96-well plates are coated with a monoclonal antibody to human leptin (R&D Systems, Minneapolis, Minn.) and left at 4° C. overnight. The plates are blocked with bovine serum albumin (BSA), and a dilution of the treated adipoctye medium is incubated in the plate at room temperature for approximately 2 hours. After washing to remove unbound components, a second monoclonal antibody to human leptin (conjugated with biotin) is added. The plate is then incubated with strepavidin-conjugated horse radish peroxidase (HRP) and enzyme levels are determined by incubation with 3, 3′,5,5′-tetramethlybenzidine, which turns blue when cleaved by HRP. The OD450 is read for each well, where the dye absorbance is proportional to the leptin concentration in the cell lysate.
Leptin is also a marker for differentiated adipocytes. In the adipocyte assay, leptin secretion into the media above the differentiated adipocytes was measured by protein ELISA. Cell growth, transfection and differentiation procedures were carried out as described for the Triglyceride accumulation assay (see below). On day nine post-transfection, 96-well plates were coated with a monoclonal antibody to human leptin (R&D Systems, Minneapolis, Minn.) and left at 4° C. overnight. The plates were blocked with bovine serum albumin (BSA), and a dilution of the media was incubated in the plate at RT for 2 hours. After washing to remove unbound components, a second monoclonal antibody to human leptin (conjugated with biotin) was added. The plate was then incubated with strepavidin-conjugated horseradish peroxidase (HRP) and enzyme levels are determined by incubation with 3, 3′, 5,5′-Tetramethlybenzidine, which turns blue when cleaved by HRP. The OD450 was read for each well, where the dye absorbance is proportional to the leptin concentration in the cell lysate. Results are expressed as a percent±standard deviation relative to transfectant-only controls.

[2] = test system: HSL; test: HSL mRNA expression in adipocytes (real-time PCR); format: cell-based, human; conditions: for HSL (mRNA expression): adipocytes, 250 nM oligomeric compound, day nine post-transfection, relative to control (1.0), Table 16
[3] = test system: preadipocytes; test: Caspase assay in preadipocytes; format: cell-based, human; conditions: untreated control set equal to 1.0
From the text: The effect of oligomeric compounds of the present invention targeting miRNAs was examined in preadipocytes (Zen-Bio, Inc., Research Triangle Park, N.C.) using the fluorometric caspase assay previously described in Example 11.

[4] = test system: adipocytes; test: Triglyceride accumulation assay in adipocytes; format: cell-based, human
[5] = test system: aP2; test: aP2 mRNA expression in adipocytes (real-time PCR); format: cell-based, human; conditions: for AP2 (mRNA expression): adipocytes, 250 nM oligomeric compound, day nine post-transfection, relative to control (1.0), Table 16
[6] = test system: Glut4; test: Glut4 mRNA expression in adipocytes (real-time PCR); format: cell-based, human; conditions: for Glut4 (mRNA expression): adipocytes, 250 nM oligomeric compound, day nine post-transfection, relative to control (1.0), Table 16
[7] = test system: HuVECs; test: Endothelial tube formation assay in HuVECs; conditions: 75 nM oligomeric compound
[8] = test system: PPARγ; test: PPARγ mRNA expression in adipocytes (real-time PCR); format: cell-based, human; conditions: for PPAR gamma (mRNA expression): adipocytes, 250 nM oligomeric compound, day nine post-transfection, relative to control (1.0), Table 16
[9] = test system: mir-21 pri-miRNA; test: mir-21 pri-miRNA expression in HeLa cells (real-time RT-PCR); format: cell-based, human; conditions: HeLa cells, 100 nM, real-time RT-PCR
[10] = test system: mir-21 miRNA; test: pGL3-mir-21 sensor luciferase assay in HeLa cells; format: cell-based, human; conditions: Table 50, pGL3-mir-21 sensor-expressing HeLa cells, normalized to pRL-CMV
From the text: In order to assess the ability of miRNAs to bind predicted miRNA binding sites and regulate the expression of the luciferase reporter, in some embodiments, expression systems based on the pGL3-Control (Promega Corp., Madison Wis.) reporter vector and comprising either a mir-15a, mir-21, or a mir-23b miRNA binding site were developed and used in transient transfections of HeLa cells to determine whether the endogenous mir-15a, mir-21, or mir-23b miRNAs, respectively, could repress luciferase reporter gene expression.
The pGL3-mir-21 sensor plasmid was created by cloning the sequence ([…]; SEQ ID NO: 335), representing a sequence complementary to the mir-21 miRNA, into the Xba site of the pGL3-Control plasmid, placing the potential miRNA-binding site in the 3′UTR of the luciferase reporter. This reporter plasmid was used to transfect HeLa cells and it was observed that the endogenous mir-21 miRNA was able to inhibit luciferase expression from the pGL3-mir-21 sensor plasmid. Thus, to further evaluate the ability of the mir-21 miRNA to bind this target site encoded by the pGL3-mir-21 sensor plasmid, and to assess the ability of oligomeric compounds to interfere with mir-21-mediated silencing, pGL3-mir-21 sensor-expressing HeLa cells were treated with varying concentrations (10 nM or 50 nM) of the following oligomeric compounds: ISIS Number 327917 (SEQ ID NO: 335), a phosphorothioate uniform 2′-MOE oligomeric compound; ISIS Number 338697 ([…]; herein incorporated as SEQ ID NO: 524), a uniform 2′-MOE oligomeric compound targeting the mir-21 pri-miRNA molecule; and ISIS Number 328415 (SEQ ID NO: 524), a 2′-MOE 5-10-5 gapmer oligomeric compound targeting the mir-21 pri-miRNA. The uniform 2′-MOE phosphorothioate oligomeric compound ISIS Number 327901 (SEQ ID NO: 319) targeting an unrelated miRNA (mir-143) was used as a negative control. The data are the average of three trials and are presented in Table 44 as percent untreated control (luciferase plasmid only, not treated with oligomeric compound) luciferase expression, normalized to pRL-CMV levels.
In one embodiment, the oligomeric compounds ISIS Number 327917 (SEQ ID NO: 335), the phosphorothioate uniform 2′-MOE targeting mature mir-21; ISIS Number 358768 (SEQ ID NO: 918), the uniform 2′-MOE targeting the mir-21 pri-miRNA which stimulated the largest increase in pri-miRNA expression levels by real time quantitative RT-PCR; and ISIS Number 345382 (SEQ ID NO: 335), the 5-10-7 phosphorothioate 2′-MOE gapmer targeting mature mir-21 were selected for dose response studies in HeLa cells using the luciferase reporter system described in Example 27. ISIS Number 342683 (SEQ ID NO: 790), representing the scrambled nucleotide sequence of an unrelated PTP1B antisense oligonucleotide, was used as a negative control. HeLa cells expressing the pGL3-mir-21 sensor plasmid (described in Example 27) were treated with 1.9, 5.5, 16.7, and 50 nM of these oligomeric compounds, to assess the ability of oligomeric compounds to interfere with endogenous mir-21-mediated silencing of the pGL3-mir-21 sensor plasmid. The data are presented in Table 50 as percent untreated control (luciferase plasmid only, not treated with oligomeric compound) luciferase expression, normalized to pRL-CMV levels.

[11] = test system: T47D cells; test: Caspase-3 activity assay (apoptosis) in T47D cells; conditions: T47D cells, 48 hours; for Fold Increase over UTC (caspase-3 activity, apoptosis): 200 nM oligomeric compound
[12] = test system: BJ, B16-F10, T47D, T47Dp53 and HeLa cells; test: Cell cycle assay (propidium iodide flow cytometry), cell line panel; format: cell-based; conditions: 150 nM oligomeric compound, 4.5 μg/ml LIPOFECTIN, after 72 hours, propidium iodide flow cytometry
[13] = adipocytes, 250 nM oligomeric compound, relative to control (1.0), Table 16
[14] = differentiating adipocytes transfected with oligomeric compound

“327926 (antisense eA*e[5mC]*eT*eA*eT*eG*e[5mC]*eA*eA*e[5mC]*e[5mC]*eT*eA*e[5mC]*eT*eA*e[5mC]*e[5mC]*eT*e[5mC]*eT) [compound 327926]” was tested, and the “Leptin (secretion)” value [1] was 1.47, the “HSL (mRNA expression)” value [2] was 0.82 and the “Fold Increase over UTC (caspase activity)” value [3] was 1.8 fold over UTC. For the same substance, the “TG (triglyceride accumulation)” value [4, 13] was 1.06, the “AP2 (mRNA expression)” value [5] was 0.85 and the “Glut4 (mRNA expression)” value [6] was 1.10. The “% Activity Relative to UTC (tube formation)” value (from here on “% Activity Relative to UTC”) ([7]; Table 58) was 96.3% and the “PPAR gamma (mRNA expression)” value [8] was 0.93.

“327930 (antisense eA*e[5mC]*eT*eA*eT*eA*e[5mC]*eA*eA*e[5mC]*e[5mC]*eT*e[5mC]*e[5mC]*eT*eA*e[5mC]*e[5mC]*eT*e[5mC]*eA) [compound 327930]” was tested, and the “Leptin (secretion)” value [1] was 0.95, the “HSL (mRNA expression)” value [2] was 0.89 and the “Fold Increase over UTC (caspase activity)” value [3] was 1.4 fold over UTC. The “TG (triglyceride accumulation)” value [4, 13] was 0.97, the “AP2 (mRNA expression)” value [5] was 0.86 and the “Glut4 (mRNA expression)” value [6] was 1.01. For the same substance, the “% Activity Relative to UTC” value ([7]; Table 58) was 88.9% and the “PPAR gamma (mRNA expression)” value [8] was 0.98.

For “327938 (antisense eA*eA*e[5mC]*eA*eA*eT*eA*e[5mC]*eA*eA*e[5mC]*eT*eT*eA*e[5mC]*eT*eA*e[5mC]*e[5mC]*eT*e[5mC]*eA) [compound 327938]”, the “Leptin (secretion)” value [1] was 1.35, the “HSL (mRNA expression)” value [2] was 0.85 and the “Fold Increase over UTC (caspase activity)” value [3] was 1.0 fold over UTC. The “TG (triglyceride accumulation)” value [4, 13] was 1.05, the “AP2 (mRNA expression)” value [5] was 0.86 and the “Glut4 (mRNA expression)” value [6] was 0.80. The “% Activity Relative to UTC” value ([7]; Table 58) was 96.3% and the “PPAR gamma (mRNA expression)” value [8] was 0.90.

In the case of “327942 (antisense e[5mC]*e[5mC]*eA*eT*e[5mC]*eT*eT*eT*eA*e[5mC]*e[5mC]*eA*eG*eA*e[5mC]*eA*eG*eT*eG*eT*eT) [compound 327942]”, the “Leptin (secretion)” value [1] is reported as 2.03, the “HSL (mRNA expression)” value [2] is reported as 0.79 and the “Fold Increase over UTC (caspase activity)” value [3] is reported as 1.0 fold over UTC. For the same substance, the “TG (triglyceride accumulation)” value [4, 13] was 0.85, the “AP2 (mRNA expression)” value [5] was 0.82 and the “Glut4 (mRNA expression)” value [6] was 0.66. For the same substance, the “% Activity Relative to UTC” value ([7]; Table 58) was 74.1% and the “PPAR gamma (mRNA expression)” value [8] was 0.87.

In the case of “327955 (antisense eG*e[5mC]*e[5mC]*e[5mC]*eT*eT*eT*e[5mC]*eA*eT*e[5mC]*eA*eT*eT*eG*e[5mC]*eA*e[5mC]*eT*eG) [compound 327955]”, the “Leptin (secretion)” value [1] is reported as 1.22, the “HSL (mRNA expression)” value [2] is reported as 0.82 and the “Fold Increase over UTC (caspase activity)” value [3] is reported as 4.3 fold over UTC. For the same substance, the “TG (triglyceride accumulation)” value [4, 13] was 0.81, the “AP2 (mRNA expression)” value [5] was 0.74 and the “Glut4 (mRNA expression)” value [6] was 0.45. For the same substance, the “% Activity Relative to UTC” value ([7]; Table 59) was 46.7% and the “PPAR gamma (mRNA expression)” value [8] was 0.92.

For “358768 (eA*eG*eG*eT*eG*eG*eT*eA*e[5mC]*eA*eG*e[5mC]*e[5mC]*eA*eT*eG*eG*eA*eG*eA) [compound 358768]”, the “mir-21 pri-miRNA expression % UTC” value [9] was 987 % UTC, the “luciferase expression % UTC” value ([10]; 1.9 nM) was 103 % UTC and the “luciferase expression % UTC” value ([10]; 5.5 nM) was 163 % UTC. For the same substance, the “luciferase expression % UTC” value ([10]; 16.7 nM) was 146 % UTC and the “luciferase expression % UTC” value ([10]; 50 nM) was 118 % UTC.

For “NNNNNNNNNNNNNNNNNNNN [ISIS 29848, reference compound]”, the “HSL mRNA” value [2, 14] was 84 percentage of untreated control (UTC), the “Fold Increase over UTC (caspase-3 activity, apoptosis)” value ([11]; experiment of Table 10) was 3.0 fold and the “Fold Increase over UTC (caspase-3 activity, apoptosis)” value ([11]; experiment of Table 11) was 3.2 fold. For the same substance, the “Fold Increase over UTC (caspase-3 activity, apoptosis)” value ([11]; experiment of Table 12) was 3.5 fold, the “Fold Increase over UTC (caspase activity)” value ([11]; 200 nM, relative to untreated control) was 3.5 and the “Fold Increase over UTC (caspase activity)” value [3] was 1.2 fold over UTC. For the same substance, the “TG (triglyceride accumulation)” value [4, 14] was 89 percentage of untreated control (UTC), the “AP2 mRNA” value [5, 14] was 89 percentage of untreated control (UTC) and the “G1 (percentage of cells in phase of the cell cycle)” value [12] was 57.8%. For the same substance, the “G2/M (percentage of cells in phase of the cell cycle)” value [12] was 15.6%, the “S (percentage of cells in phase of the cell cycle)” value [12] was 26.5% and the “SubG1 (percentage of cells in phase of the cell cycle)” value [12] was 9.6%. For the same substance, the “aneuploid (percentage of cells)” value [12] was 12%, the “GLUT4 mRNA” value [6, 14] was 96 percentage of untreated control (UTC) and the “PPAR gamma mRNA” value [8, 14] was 100 percentage of untreated control (UTC).
